Results published in patent US6555372B1, “Composition for enhancing cellular immunogenicity comprising alpha-glycosylceramides” (Kirin Beer Kabushiki Kaisha, priority 1997, dated 2003).

How the values were obtained:
[1] = test system: Mouse T lymphoma EL-4 cells; assay: Therapeutic effect of treated tumor cells in EL-4 liver metastasis model mice; format: in vivo
Procedure: Mouse T lymphoma EL-4 cells (4×10^5 cells/mouse) were implanted intravenously into the tail of BDF1 mice (female, 6 weeks of age, Japan SLC, Inc.), 6 animals in one group, to prepare cancer-bearing mice. The days of tumor implantation was set to be day 0. On the same day, a vehicle (0.1% DMSO), KRN 7000 (100 ng/ml) or AGL-583 (100 ng/ml) was added to EL-4 cells which had been inoculated into a fresh medium, in the same manner as in Pharmacological Test 1 above. One day after the start of incubation, cells of EL-4/V, EL-4/KRN and EL-4/583 cultured in the presence of the vehicle, KRN 7000 and AGL-583, respectively, were recovered and washed twice with the medium, after which the recovered cells were immunized intravenously into the tail of the cancer-bearing mice at 1×10^5 cells/mouse. The resulting antitumor effect was compared.
EL-4 implanted mice generally died in about 30 days owing to the tumor formation and growth in several organs, particularly in the liver. Therefore, antitumor effect was evaluated by observing the survival period of cancer-bearing hosts.

[2] = test system: B16, EL-4, Lewis lung carcinoma, Colon 26, L1210 and Meth A mouse tumor cells; assay: Effect of α-glycosylceramide on tumorigenicity of tumor cells; format: in vivo; conditions: six mouse tumor cell lines cultured 1 day with 100 ng/ml, implanted i.v. into C57BL/6 or BALB/c mice; FIG. 4
Source text: Six kinds of mouse tumor cells, i.e., three kinds of C57BL/6 mouse-derived tumor cells, i.e., murine melanoma B16 cells (Dainippon Pharmaceutical Co., Ltd.), mouse T lymphoma EL-4 cells (Dainippon Pharmaceutical Co., Ltd.) and mouse Lewis lung carcinoma cells (Dainippon Pharmaceutical Co., Ltd.), and three kinds of BALB/c-mouse derived tumor cells, i.e., mouse colon cancer cell Colon 26 (Japanese Foundation for Cancer Research), mouse leukemia L1210 cells (Japanese Foundation for Cancer Research) and mouse fibrosarcoma Meth A cells (Japanese Foundation for Cancer Research) were cultured with or without an addition of a vehicle (0.1% DMSO) or KRN 7000 (100 ng/ml) for one day as described in Pharmacological Tests above. The resulting tumor cells were washed twice with a medium, suspended again in a fresh medium and implanted intravenously into the tail of corresponding mice. […]
The tumor cells implanted intravenously into the tail formed metastasized nodules in various organs, particularly in the liver or lung, and ultimately killed the animals. Accordingly, the effect of the tumor cells on tumorigenicity (a rate of tumor formation, the ability to form tumor burden) was evaluated by observing the survival period.

[3] = EL-4-bearing BDF1 mice immunized i.v. on day 1 with 1×10^5 EL-4 cells cultured 1 day with 100 ng/ml compound, vs control mice with tumor only, FIG. 2

| Compound | antitumor effect [1, 3] | survival period [1, 3] | treated mice survived for a long term ([1]; EL-4-bearing BDF1 mice immunized i.v. with 1×10^5 EL-4 cells cultured 1 day with 100 ng/ml compound, 6 animals per group) | tumorigenicity of treated tumor cells [2] |
| --- | --- | --- | --- | --- |
| CCCCCCCCCCCCCCCCCCCCCCCCCC(=O)N[C@@H](CO[C@@H]1O[C@H](CO)[C@H](O)[C@H](O)[C@H]1O)[C@H](O)[C@H](O)CCCCCCCCCCCCCC [AGL-583, reference compound] | no evident antitumor effect was observed | not prolonged at all | – | – |
| CCCCCCCCCCCCCCCCCCCCCCCCCC(=O)N[C@@H](CO[C@H]1O[C@H](CO)[C@H](O)[C@H](O)[C@H]1O)[C@H](O)[C@H](O)CCCCCCCCCCCCCC [KRN 7000, (2S,3S,4R)-1-(α-D-galactopyranosyloxy)-2-hexacosanoylamino-3,4-octadecanediol] | – | markedly prolonged | 33.3% | diminished or completely abolished |
